Experimental findings from patent publication US20120309739A1, “AKT / PKB INHIBITORS” (ALMAC DISCOVERY LIMITED, priority 2009, published 2012) are described below.

For experiment [1], the target named is T1, AKT3 (Homo sapiens, UniProt Q9Y243).
T1 construct: purchased SignalChem
As to the kind of experiment: AKT Kinase Assay (IMAP fluorescent polarisation) vs AKT3. The note with it: activated AKT3, FAM Crosstide substrate. It is filed as biochemical. The method in brief:
(§1)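 Each activated AKT isoform, at a pre-determined linear-range concentration, was pre-incubated 45 min at room temperature with compound in a fourteen-point half-log series. ATP plus 5′FAM-Crosstide then reacted 1 h; IMAP binding reagent stopped it (1 h). Fluorescence polarisation (ex 485/em 528 nm) versus vehicle gave IC50 by non-linear regression.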

Experiment [2] deals with AKT phosphorylation. As to the kind of experiment: Phosphorylation status of AKT/PI3K pathway via western blotting. The note with it: for 48 h at 10 μM. It is filed as cell-based. The source says: Analysis of Compound Effects on AKT Signalling Pathways
Phosphorylation status of various members of the AKT/PI3K pathway were investigated via western blotting.
Materials Required for this Assay
20× Running buffer (Invitrogen); Rainbow marker ladder (GE Healthcare); Reducing buffer (Invitrogen); 20× Transfer buffer (Invitrogen); 4-12% Bis-Tris Gels (Invitrogen); Filter paper (Whatman); Nitrocellulose (Amersham); ECL plus detection reagents (GE Healthcare); Radiographic film (Kodak); Biorad Protein determination reagent (Biorad); AKT pathway signalling antibodies (Cell Signalling)
LnCaP and PC3 cell lines were washed, detached and re-suspended in fresh medium. They were seeded in 90 mm^2 dishes and incubated overnight ([…]/5% CO2) to allow adherence. […]
The medium was removed and the cells placed on ice and washed in PBS. […] The resultant supernatant was assayed for protein content using the Bradford method (Biorad) and equal quantities of protein calculated and heated in sample reducing buffer to 95° C. for ten minutes. […]
The membranes were used to determine difference in total AKT, pSer473 AKT, pGSK3β and total GSK3β (all sourced from Cell Signalling). […] The membranes were washed three times in PBS and incubated with the respective secondary antibodies (Sigma Aldrich) for two hours and the proteins were detected using ECL plus detection reagents (GE Healthcare).

Experiment [3] deals with T2, AKT1 (Homo sapiens, UniProt P31749).
T2 construct: purchased SignalChem
T2 sequence (P31749 whole entry): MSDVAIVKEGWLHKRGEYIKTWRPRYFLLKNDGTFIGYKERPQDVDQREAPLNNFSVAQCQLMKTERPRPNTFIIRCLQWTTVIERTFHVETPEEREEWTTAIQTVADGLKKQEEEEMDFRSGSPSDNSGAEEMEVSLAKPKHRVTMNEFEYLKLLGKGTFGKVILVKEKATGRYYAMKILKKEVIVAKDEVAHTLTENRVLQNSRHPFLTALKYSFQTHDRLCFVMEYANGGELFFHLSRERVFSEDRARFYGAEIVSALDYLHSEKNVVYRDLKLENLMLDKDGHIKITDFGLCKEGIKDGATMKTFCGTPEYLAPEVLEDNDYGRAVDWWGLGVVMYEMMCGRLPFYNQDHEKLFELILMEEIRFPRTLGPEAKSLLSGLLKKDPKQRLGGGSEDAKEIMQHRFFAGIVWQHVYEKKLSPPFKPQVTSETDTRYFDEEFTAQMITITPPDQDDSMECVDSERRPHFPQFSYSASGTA
As to the kind of experiment: AKT Kinase Assay (IMAP fluorescent polarisation) vs AKT1. The note with it: activated AKT1, FAM Crosstide substrate. Format: biochemical. The method in brief: as §1

For experiment [4], the target named is T3, AKT2 (Homo sapiens, UniProt P31751).
T3 construct: purchased SignalChem
T3 sequence (P31751 whole entry): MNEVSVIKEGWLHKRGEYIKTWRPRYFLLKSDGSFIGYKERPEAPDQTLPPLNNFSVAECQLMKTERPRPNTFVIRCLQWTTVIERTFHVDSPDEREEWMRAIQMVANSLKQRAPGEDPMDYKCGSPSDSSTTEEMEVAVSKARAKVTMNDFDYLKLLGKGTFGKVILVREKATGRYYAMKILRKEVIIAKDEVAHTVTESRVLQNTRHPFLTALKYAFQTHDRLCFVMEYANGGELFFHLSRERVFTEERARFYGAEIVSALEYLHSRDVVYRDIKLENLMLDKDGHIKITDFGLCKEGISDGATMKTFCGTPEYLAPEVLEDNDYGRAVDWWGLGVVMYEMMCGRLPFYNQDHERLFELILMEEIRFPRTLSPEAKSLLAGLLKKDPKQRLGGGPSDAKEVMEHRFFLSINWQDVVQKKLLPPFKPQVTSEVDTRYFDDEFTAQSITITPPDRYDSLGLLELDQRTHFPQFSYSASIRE
As to the kind of experiment: AKT Kinase Assay (IMAP fluorescent polarisation) vs AKT2. Format: biochemical. Particulars: activated AKT2, FAM Crosstide substrate. The method in brief: as §1

Broadly, the pIC50 is the IC50 on a negative log10 scale, so that one unit is a factor of ten.

pIC50: −log10 of the molar value.

T1 sequence (Q9Y243 whole entry): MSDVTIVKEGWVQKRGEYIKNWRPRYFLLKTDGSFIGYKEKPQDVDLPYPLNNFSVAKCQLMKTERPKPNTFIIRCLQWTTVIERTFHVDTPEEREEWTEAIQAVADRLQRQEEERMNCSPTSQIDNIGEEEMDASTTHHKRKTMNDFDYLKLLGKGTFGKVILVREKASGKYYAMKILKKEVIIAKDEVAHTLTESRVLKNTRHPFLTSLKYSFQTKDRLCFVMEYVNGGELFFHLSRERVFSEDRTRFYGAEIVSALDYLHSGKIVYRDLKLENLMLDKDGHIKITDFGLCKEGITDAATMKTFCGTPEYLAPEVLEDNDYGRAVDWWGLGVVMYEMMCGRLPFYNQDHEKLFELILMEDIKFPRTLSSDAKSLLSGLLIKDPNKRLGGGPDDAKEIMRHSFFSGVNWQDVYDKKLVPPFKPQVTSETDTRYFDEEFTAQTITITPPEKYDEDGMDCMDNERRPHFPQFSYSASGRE

Regarding `CSc1nc2oc(-c3ccc(C4(N)CCC4)cc3)c(-c3ccccc3)c2c(=O)[nH]1` [Example 15, 6-(4-(1-Aminocyclobutyl)phenyl)-2-(methylthio)-5-phenylfuro[2,3-d]pyrimidin-4(3H)-one], the results for the pIC50 in experiment [1], in experiment [3] and in experiment [4] were 5.00 to 6.00, 6.00 to 7.00 and 6.00 to 7.00, respectively. In experiment [2], the “inhibition of AKT phosphorylation” value is recorded as “inhibition of AKT phosphorylation”.
